This experiment relates to BDF1 mice, P388 leukemia ip, median survival T/C. Description: NCI In Vivo Anticancer Drug Screen. Data for tumor model P388 Leukemia (intraperitoneal) in B6D2F1 (BDF1) mice. The conditions noted are these: endpoint: median survival time, higher = longer survival. The method in brief:
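Antitumour effect was judged in vivo: survival in drug-treated mice, normalised to that of vehicle-dosed controls, gives the reported T/C.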

Where [1] appears, read: dose: 12.5 mg/kg/injection, schedule: Q01DX009 (ip), vehicle: saline with Tween-80.
The mark [2] stands for this setting: dose: 50.0 mg/kg/injection, schedule: Q01DX009 (ip), vehicle: saline with Tween-80.
Where [3] appears, read: dose: 100.0 mg/kg/injection, schedule: Q04DX003 (ip), vehicle: saline sonified.
The mark [4] stands for this setting: dose: 200.0 mg/kg/injection, schedule: Q01DX009 (ip), vehicle: Klucel (hydroxypropylcellulose) (HPC).
Where [5] appears, read: dose: 200.0 mg/kg/injection, schedule: Q04DX003 (ip), vehicle: Klucel (hydroxypropylcellulose) (HPC).
[6] abbreviates: dose: 200.0 mg/kg/injection, schedule: Q04DX003 (ip), vehicle: saline sonified.
The mark [7] stands for this setting: dose: 25.0 mg/kg/injection, schedule: Q01DX009 (ip), vehicle: saline with Tween-80.
Setting [8] is: dose: 100.0 mg/kg/injection, schedule: Q01DX001 (ip), vehicle: saline.
[9] abbreviates: dose: 200.0 mg/kg/injection, schedule: Q01DX001 (ip), vehicle: saline.
Where [10] appears, read: dose: 100.0 mg/kg/injection, schedule: Q04DX003 (ip), vehicle: saline with Tween-80.
Setting [11] is: dose: 200.0 mg/kg/injection, schedule: Q04DX003 (ip), vehicle: saline with Tween-80.
Setting [12] is: dose: 400.0 mg/kg/injection, schedule: Q04DX003 (ip), vehicle: saline with Tween-80.
Where [13] appears, read: dose: 100.0 mg/kg/injection, schedule: Q01DX009 (ip), vehicle: saline with Tween-80.

SMILES strings stand for the structures. Several values for one entry are separate records, joined by “and”; a condition that tells them apart may be missing. Equal values may be shown once. Toxic doses and inconclusive results are not listed.

On to `O=C1N(Br)C(=O)C(c2ccc(Cl)cc2)(c2ccc(Cl)cc2)N1Br`, for which the T/C under setting [1] was 113 % of control; the T/C (dose: 45.0 mg/kg/injection, schedule: Q04DX003 (ip), vehicle: Klucel (hydroxypropylcellulose) (HPC)) was 90 % of control; the T/C under setting [2] is 172 % of control; the T/C (dose: 65.0 mg/kg/injection, schedule: Q04DX003 (ip), vehicle: Klucel (hydroxypropylcellulose) (HPC)) was 95 % of control; the T/C (dose: 100.0 mg/kg/injection, schedule: Q04DX003 (ip), vehicle: alcohol) is 150 % of control; the T/C under setting [3] is 115 % of control. Also, the T/C (dose: 130.0 mg/kg/injection, schedule: Q01DX009 (ip), vehicle: Klucel (hydroxypropylcellulose) (HPC)) is 156 % of control; the T/C (dose: 132.0 mg/kg/injection, schedule: Q01DX009 (ip), vehicle: Klucel (hydroxypropylcellulose) (HPC)) is 95 % of control; the T/C (dose: 132.0 mg/kg/injection, schedule: Q04DX003 (ip), vehicle: Klucel (hydroxypropylcellulose) (HPC)) is 177 % of control; the T/C (dose: 132.0 mg/kg/injection, schedule: Q04DX003 (ip), vehicle: saline) is 165 % of control; the T/C (dose: 200.0 mg/kg/injection, schedule: Q01DX003 (ip), vehicle: Klucel (hydroxypropylcellulose) (HPC)) is 154 % of control; the T/C under setting [4] is 175 % of control. Moreover, the T/C by setting is: under setting [5], 154 % of control; (dose: 200.0 mg/kg/injection, schedule: Q04DX003 (ip), vehicle: alcohol) 185 % of control; under setting [6], 160 % of control; (dose: 300.0 mg/kg/injection, schedule: Q04DX003 (ip), vehicle: saline) 150 % of control; (dose: 400.0 mg/kg/injection, schedule: Q04DX003 (ip), vehicle: alcohol) 150 % of control.
Regarding `CC(=O)c1ccccc1I`, the T/C is 100 % of control (dose: 100.0 mg/kg/injection, schedule: Q01DX009 (ip), vehicle: Klucel (hydroxypropylcellulose) (HPC)); 104 % of control (dose: 100.0 mg/kg/injection, schedule: Q04DX003 (ip), vehicle: Klucel (hydroxypropylcellulose) (HPC)); 95 % of control under setting [4]; 100 % of control under setting [5]; 100 % of control (dose: 400.0 mg/kg/injection, schedule: Q01DX009 (ip), vehicle: Klucel (hydroxypropylcellulose) (HPC)); 95 % of control (dose: 400.0 mg/kg/injection, schedule: Q04DX003 (ip), vehicle: Klucel (hydroxypropylcellulose) (HPC)).
Turning to `O=C(O)c1ccc(S(=O)(=O)O)cc1C(=O)O`, the T/C was 104 % of control (dose: 50.0 mg/kg/injection, schedule: Q04DX003 (ip), vehicle: saline); 100 % of control (dose: 100.0 mg/kg/injection, schedule: Q04DX003 (ip), vehicle: saline); 91 % of control (dose: 200.0 mg/kg/injection, schedule: Q04DX003 (ip), vehicle: saline).
Turning to `CS(=O)(=O)OCCN(CCOS(C)(=O)=O)c1ccc(C=O)cc1`, the T/C is 227 % of control (dose: 3.0 mg/kg/injection, schedule: Q04DX003 (ip), vehicle: saline with Tween-80); 210 % of control (dose: 3.13 mg/kg/injection, schedule: Q01DX009 (ip), vehicle: saline with Tween-80); 177 % of control (dose: 5.0 mg/kg/injection, schedule: Q04DX003 (ip), vehicle: saline with Tween-80); 229 % of control (dose: 6.25 mg/kg/injection, schedule: Q01DX009 (ip), vehicle: saline with Tween-80); 237 % of control (dose: 8.0 mg/kg/injection, schedule: Q01DX009 (ip), vehicle: saline with Tween-80); 181 % of control (dose: 8.0 mg/kg/injection, schedule: Q04DX003 (ip), vehicle: saline with Tween-80). The T/C was 195 % of control (dose: 8.25 mg/kg/injection, schedule: Q04DX003 (ip), vehicle: saline with Tween-80); 212 % of control (dose: 12.0 mg/kg/injection, schedule: Q01DX009 (ip), vehicle: saline with Tween-80); 231 % of control and 176 % of control under setting [1]; 212 % of control (dose: 12.5 mg/kg/injection, schedule: Q04DX003 (ip), vehicle: saline with Tween-80); 250 % of control (dose: 18.0 mg/kg/injection, schedule: Q01DX009 (ip), vehicle: saline with Tween-80); 250 % of control (dose: 18.75 mg/kg/injection, schedule: Q04DX003 (ip), vehicle: saline with Tween-80). For the same compound, the T/C under setting [7] is 86 % of control.
As to `O=[N+]([O-])c1cccc2ccc(N/N=C/c3ccccc3O)nc12`, the T/C reads like this: (dose: 10.0 mg/kg/injection, schedule: Q01DX009 (ip), vehicle: Klucel (hydroxypropylcellulose) (HPC)) 96 % of control; (dose: 20.0 mg/kg/injection, schedule: Q01DX009 (ip), vehicle: Klucel (hydroxypropylcellulose) (HPC)) 122 % of control; (dose: 40.0 mg/kg/injection, schedule: Q01DX009 (ip), vehicle: Klucel (hydroxypropylcellulose) (HPC)) 111 % of control.
`COc1cc2c(c3oc(=O)ccc13)C(=O)CC(C)(C)O2`: the T/C (dose: 50.0 mg/kg/injection, schedule: Q01DX001 (ip), vehicle: saline) was 108 % of control; the T/C under setting [8] is 100 % of control; the T/C under setting [9] was 104 % of control.
As for `N#CC(/C=C/c1ccccc1)Nc1ccccc1` (configuration not stated), the T/C reads like this: under setting [10], 104 % of control; under setting [11], 100 % of control; under setting [12], 100 % of control.
For `CC(C)CCC[C@@H](C)[C@H]1CC[C@H]2[C@@H]3CC=C4C[C@@H](O)CC[C@]4(C)[C@H]3CC[C@]12C`, the T/C was 106 % of control (dose: 100.0 mg/kg/injection, schedule: Q01DX009 (ip), vehicle: other); 103 % of control (dose: 200.0 mg/kg/injection, schedule: Q01DX009 (ip), vehicle: other); 89 % of control (dose: 400.0 mg/kg/injection, schedule: Q01DX009 (ip), vehicle: other); 105 % of control (dose: 800.0 mg/kg/injection, schedule: Q01DX009 (ip), vehicle: other).
On to `CCCNC(=O)Nc1cccc(Cl)c1C`, for which the T/C is 104 % of control under setting [10], 100 % of control under setting [11] and 100 % of control under setting [12].
For `CC(N)Cc1ccc(N(C)C)cc1F` (configuration not stated), the T/C runs as follows: under setting [7], 96 % of control; (dose: 25.0 mg/kg/injection, schedule: Q01DX009 (ip), vehicle: saline) 103 % of control; under setting [2], 96 % of control; (dose: 50.0 mg/kg/injection, schedule: Q01DX009 (ip), vehicle: saline) 98 % of control and 107 % of control; under setting [13], 107 % of control; (dose: 100.0 mg/kg/injection, schedule: Q01DX009 (ip), vehicle: saline) 96 % of control.
As for `C/C=C/C1CC(OC)=CC(=O)O1` (configuration not stated), the T/C was 106 % of control under setting [10], 92 % of control under setting [11] and 97 % of control under setting [12].
`CC(C)(C)OC(=O)NC(CC(Cc1ccccc1)C(=O)O)C(=O)NC(CC(Cc1ccccc1)C(=O)O)C(=O)NC(CC(Cc1ccccc1)C(=O)O)C(=O)NCC(=O)Oc1ccc([N+](=O)[O-])cc1` (configuration not stated): the T/C was 86 % of control (dose: 50.0 mg/kg/injection, schedule: Q01DX005 (ip), vehicle: saline with Tween-80) and 104 % of control (dose: 200.0 mg/kg/injection, schedule: Q01DX005 (ip), vehicle: saline with Tween-80).
In the case of `Ic1ncnc2c1ncn2C1CCCCO1` (configuration not stated), the T/C reads like this: under setting [3], 91 % of control; under setting [6], 91 % of control; (dose: 400.0 mg/kg/injection, schedule: Q04DX003 (ip), vehicle: saline sonified) 91 % of control.
Regarding `CCCCOCN(COCCCC)C(C)(C)C`, the T/C is 120 % of control under setting [8] and 110 % of control under setting [9].
With `CCCCCCCCCCCCCCCC(=O)N(c1ccc(N)cc1)C(C)CCCN(CC)CC` (configuration not stated), the T/C under setting [13] is 89 % of control; the T/C under setting [10] was 90 % of control; the T/C (dose: 200.0 mg/kg/injection, schedule: Q01DX009 (ip), vehicle: saline with Tween-80) was 98 % of control; the T/C under setting [11] was 90 % of control; the T/C (dose: 400.0 mg/kg/injection, schedule: Q01DX009 (ip), vehicle: saline with Tween-80) was 100 % of control; the T/C under setting [12] was 90 % of control.
